The record followed here is patent US5126134A, “Pharmaceutically active combination” (Ciba-Geigy Corporation, priority 1988, dated 1992).

Test [1] concerns coagulation (clotting time, aPTT) of citrated plasma. Put plainly: In vitro clot lysis / coagulation in citrated plasma with t-PA. The format is biochemical, Human. The settings on record: for concentration leading to the same prolongation of aPTT (equipotent concentration): human citrated plasma. How it is done: Human blood is directly withdrawn into 3.8% sodium citrate solution (ratio blood/citrate solution 9:1). The mixture is centrifuged at 1,000 rpm for 10 min to yield citrated plasma.
A mixture consisting of 150 μl citrated plasma 125 μl 0.9% sodium chloride solution 100 μl desulfato hirudin HV1 or MCI-9038 (see below) in 0.9% sodium chloride is prepared directly in 1 ml cuvettes equilibrated at 37° C. The mixture is incubated for 15 min at 37° C. Then, 25 μl of a 1 μg/ml t-PA stock solution (American Diagnostica, New York) and 300 μl 0.0025M calcium chloride solution are added to start coagulation.
The change in the optical density (coagulation) is continuously measured at 608 nm in a Uvikon 810 P spectrophotometer equipped with a kinetic program.
The time (in minutes) from addition of the CaCl2 solution to a change in absorbance greater than 0.025 is defined as the coagulation time. The clot lysis time (in minutes) is defined as the time from the beginning of the clotting to the time at which the absorbance decreased to 10% of the maximum absorbance.
The thrombin inhibitor MCI-9038 [(2R,4R)-4-methyl-1-[N^2 -[(3-methyl-1,2,3,4-tetrahydro-8-quinolyl)-sulfonyl]-L-arginyl]-2-piperidinecarboxylic acid] is chemically synthesized as described in S. Okamoto et al., Biochem. Biophys. Res. Commun. 101, 440-446 (1981). It is used at the following end concentrations: 0.07, 0.14, 0.28, 0.56 and 1.1 μM. The desulfato hirudin used has been prepared by recombinant DNA technology using transformed yeast according to the procedure described in European Patent Application No. 225,633. It is used at the following end concentrations: 0.8, 1.6, 3.2, 8 and 16 nM. The concentrations chosen of MCI-9038 and desulfato hirudin are equipotent concentrations in terms of prolongation of clotting time (coagulation), e.g. 1.2 μM MCl-9038 and 16 nM desulfato hirudin lead to the same prolongation of aPTT.

For test [2], the system named is preformed non-radioactive thrombi in the jugular vein. The test can be described thus: Rabbit jugular vein thrombosis model: inhibition of thrombus accretion during thrombolysis with t-PA. The format is in vivo, New Zealand white rabbits. How it is done:
The experiments are performed with New Zealand white rabbits (weighing 2.3-3.5 kg) anaesthesized by intravenous (marginal ear vein) injection of 30 mg/kg sodium pentobarbital. Through a paramedical incision of the neck, the jugular veins and the right carotid artery are exposed. The right carotid artery is cannulated with a 1.5 mm diameter polyethylene cannula for blood sampling. The two jugular veins are isolated, cleared over a distance of 2 cm, small side branches are ligated. Each jugular segment is emptied of blood and blood flow is temporarily occluded both proximally and distally by two angiostaths, 1.5 cm apart. A 10 cm length 3.0 TiCron braided polyester suture, presoaked in a collagen solution, is introduced lengthwise in the lumen of the isolated jugular vein for a distance of 4 cm to avoid the embolization of the thrombus to be produced. […] The effects of standard heparin and recombinant desulfato hirudin in preventing thrombus extension during thrombolysis with t-PA are assessed as their ability to inhibit the accretion of ^125 I-fibrinogen onto autologous non-radioactive thrombi preformed in the jugular vein of rabbits. […] The ratio of the radioactivity of the thrombus to the circulating fibrinogen radioactivity is used to quantify thrombus size, which is then expressed as μg or ^125 I-fibrinogen accreted onto the thrombus.

For test [3], the system named is activated partial thromboplastin time. The test can be described thus: aPTT prolongation in control experiments (rabbit model). The format is in vivo, New Zealand white rabbits. The settings on record: heparin 0.75 mg/kg, hirudin 1 mg/kg. How it is done:
Intravenous infusions are carried out by using a constant rate infusion pump. t-PA derived from melanoma cell cultures is obtained from BioResponse, USA. A total dose of 0.5 mg t-PA is infused through the marginal ear vein over a period of 3 hours. Along with t-PA either saline, standard heparin (KabiVitrum, Sweden, 140 USP/mg; 0.75 mg/kg) or hirudin (1 mg/kg) are infused. Doses of heparin and hirudin are used which give in control experiments the same prolongation in aPTT (activated partial thromboplastin time), e.g. times two.

Consider `CC1CNc2c(cccc2S(=O)(=O)N[C@@H](CCCNC(=N)N)C(=O)N2CC[C@@H](C)C[C@@H]2C(=O)O)C1` (stereo partly drawn) [MCI-9038, (2R,4R)-4-methyl-1-[N^2-[(3-methyl-1,2,3,4-tetrahydro-8-quinolyl)-sulfonyl]-L-arginyl]-2-piperidinecarboxylic acid], for which, in test [1] (equipotent with 16 nM desulfato hirudin), the “concentration leading to the same prolongation of aPTT (equipotent concentration)” value is 1.2 µM. The “concentration needed to achieve the same effect as a given concentration of desulfato hirudin” value in test [1] (relative to desulfato hirudin, in vitro clot lysis) is reported as “twenty-fold”.
As to desulfato hirudin HV1, the “effect on thrombus accretion during t-PA thrombolysis” value in test [2] (FIG. 1, infused along with t-PA, heparin 0.75 mg/kg, desulfato hirudin 1 mg/kg) is recorded as “clear reduction in thrombus accretion”. Moreover, in test [2] (FIG. 2, t-PA with various concentrations of desulfato hirudin), the “effect on thrombus accretion with increasing concentrations” value is on record as “this effect can even be potentiated”. In addition, the “concentration leading to the same prolongation of aPTT (equipotent concentration)” value in test [1] (equipotent with 1.2 μM MCI-9038) was 0.016 µM. Moreover, the “prolongation in aPTT” value in test [3] is “times two”.
